As usually defined, the EC50 is the concentration at which the effect is half-maximal.

One test has as its target PRMT5 (Homo sapiens (Human), UniProt O14744). Description: PRMT5 Cell Target Engagement (TE) Assay. The format is cell-based. Particulars: MCF-7 cells, 3 days treatment, nuclear SDMA by high content imaging; top compound concentration 10000 nM. The text has this: PRMT5 Cell Target Engagement (TE) Assay
The PRMT5 TE assay is a biomarker assay for identifying compounds that inhibit symmetric dimethylation of arginine (SDMA) of PRMT5 substrates. This assay detects symmetrically dimethylated nuclear proteins using high content imaging technology. Detection of the expression of symmetrically dimethylated nucleo proteins is through a mixture of primary rabbit monoclonal antibodies to SDMA (CST 13222), which in turn recognized by an Alexafluor 488 dye-conjugated anti-rabbit IgG secondary antibody. The IN Cell Analyzer 2200 measures nuclear Alexafluor 488 fluorescent dye intensity that is directly related to the level of expression of symmetrically dimethylated nuclear proteins at the single cell level. Nuclear AF488 dye intensities are compared to the mean value for DMSO treated cells […] to report percent of inhibition for each compound-treated well.
Each well of a BD falcon collagen coated black/clear bottom 384-well plate was seeded with 4000 MCF-7 cells and allowed to attach for 5 hours. Media from cell plate was removed at 0.5 mm above the bottom of the plate and replaced with 30 μL of fresh media containing 1.2× compounds in 0.1% DMSO. Cells were treated for 3 days in 37° C. CO2 incubator. On day 3, cells were fixed with Cytofix, permeablized with 0.4% Triton-X-100/Cytofix, and washed with D-PBS without Ca/Mg. Cells were blocked with Licor Odessey blocking reagent for one hour at room temperature, followed by incubation with anti-SDMA (1:1000) antibody at 4° C. overnight. 1° antibody was removed, followed by three washings with DPBS without Ca/Mg and 0.05% Tween20. Hoechst (5 μg/ml), Cell Mask deep stain (1:2000) and Alexa488-conjugated goat anti-rabbit IgG (2 μg/mL) was added for 1 hour at room temperature. A final washing step (three washes) was performed before sealing plate for imaging on In Cell Analyzer 2200. Images from analyzer were uploaded to Columbus (at WP) for image analysis. IC50 values were determined by 4 parameters robust fit of percent fluorescence units vs. (Log10) compound concentrations.

The target in test [1] is Full-length (FL)-PRMT5-MEP50 enzyme complex (Homo sapiens (Human), UniProt O14744). The test is described as follows: PRMT5-MEP50 Enzyme Methylation Assay. The following applies: biotinylated H4R3(Me1) peptide, 15 μM SAM, top compound concentration 100000 nM. Type of test: biochemical. The method, then:
PRMT5-MEP50 Enzyme Methylation Assay
PRMT5/MEP50 biochemical assay is a direct measurement of the methylation activity of the enzyme complex on a short peptide substrate derived from the N-terminus of H4 histone. Methylation experiment is performed with recombinant protein. The assessment of inhibitory effect (IC50) of small molecules is measured by the effectiveness of the compounds to inhibit this reaction.
To each well of a white ProxiPlus 384 well-plate, 100 nL of compound (1% DMSO in final assay volume of 10 μL) was dispensed, followed by the addition of 8 μL of 1× assay buffer (50 mM Bicine pH 8.0, 1 mM DTT, 0.004% Tween20, 0.01% BSA) containing 0.5 nM of Full-length (FL)-PRMT5-MEP50 enzyme complex (recombinant proteins from baculovirus-transfected Sf21 cells: FL-PRMT5; MW=[…] and FL-MEP50; MW=38614). Plates were sealed and placed in a 37° C. humidified chamber for 30 minutes pre-incubation with compounds. Subsequently, each reaction was initiated by the addition of 2 μL 1× assay buffer containing 75 nM biotinylated H4R3(Me1) peptide, and 15 μM S-(5′-Adenosyl)-L-Methionine Chloride (SAM). The final reaction in each well of 10 μL consists of 0.5 nM PRMT5-MEP50, 75 nM biotinylated-peptide, and 15 μM. Methylation reactions were allowed to proceed for 150 minutes in a sealed plate at 37° C. Reactions were immediately quenched by the addition of 1 μL of 10% formic acid. Plates were then frozen and shipped to SAMDI™ Tech Inc. to determine the percent conversion from […]. IC50 values were determined by 7 parameters biphasic fit model plotting the percent product conversion vs. (Log10) compound concentrations.

[2] abbreviates: first IC50 of 7 parameters biphasic fit, read-out: Enzyme Methylation Assay IC50_1.
Setting [3] is: second IC50 of 7 parameters biphasic fit, read-out: Enzyme Methylation Assay IC50_2.

Read-outs that look alike come from different tables or passages of the source. A value given as a limit tells only on which side of the number the result lay.

Chain of PRMT5 (O14744 whole entry): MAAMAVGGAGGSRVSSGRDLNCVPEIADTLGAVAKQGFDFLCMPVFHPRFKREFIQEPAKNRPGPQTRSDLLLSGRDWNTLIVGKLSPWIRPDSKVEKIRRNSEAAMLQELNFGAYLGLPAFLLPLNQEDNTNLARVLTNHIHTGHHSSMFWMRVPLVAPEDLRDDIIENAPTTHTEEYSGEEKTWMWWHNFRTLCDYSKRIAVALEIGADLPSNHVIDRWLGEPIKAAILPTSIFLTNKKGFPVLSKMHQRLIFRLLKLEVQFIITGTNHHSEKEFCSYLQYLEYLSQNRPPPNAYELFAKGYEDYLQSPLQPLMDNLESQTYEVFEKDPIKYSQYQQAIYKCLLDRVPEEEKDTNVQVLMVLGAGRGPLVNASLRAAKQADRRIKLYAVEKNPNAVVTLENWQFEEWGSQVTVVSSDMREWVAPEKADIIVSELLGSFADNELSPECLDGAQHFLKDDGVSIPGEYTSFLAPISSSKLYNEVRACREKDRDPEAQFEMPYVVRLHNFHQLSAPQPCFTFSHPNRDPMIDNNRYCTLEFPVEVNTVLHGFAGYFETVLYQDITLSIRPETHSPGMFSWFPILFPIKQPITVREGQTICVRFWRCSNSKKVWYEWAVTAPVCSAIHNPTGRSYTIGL
Chain of PRMT5 (Q9BQA1 whole entry partner): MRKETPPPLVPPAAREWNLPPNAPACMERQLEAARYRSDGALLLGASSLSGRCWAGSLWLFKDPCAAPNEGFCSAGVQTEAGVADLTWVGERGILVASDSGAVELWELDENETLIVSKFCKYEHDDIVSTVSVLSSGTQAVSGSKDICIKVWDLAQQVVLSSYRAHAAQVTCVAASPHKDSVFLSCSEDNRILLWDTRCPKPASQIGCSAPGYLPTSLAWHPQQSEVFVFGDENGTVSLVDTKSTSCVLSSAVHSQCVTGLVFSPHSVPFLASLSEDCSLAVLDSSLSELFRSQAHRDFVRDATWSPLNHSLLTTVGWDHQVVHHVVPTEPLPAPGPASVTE
Chain of Full-length (FL)-PRMT5-MEP50 enzyme complex (O14744 whole entry): as the sequence (O14744 whole entry) above
Chain of Full-length (FL)-PRMT5-MEP50 enzyme complex (Q9BQA1 whole entry partner): as the sequence (Q9BQA1 whole entry partner) above

With `CC[C@H]1CN(C[C@@H](O)[C@@H]2Cc3ccccc3CN2)C(=O)c2cc(Cl)ncc21` (single isomer, unassigned) [Example 1], the EC50 on PRMT5 was at least 10 µM. The results for the IC50 in test [1] (setting [2]) and in test [1] (setting [3]) were 5.19 µM and at least 100 µM, respectively.
For `CC[C@H]1CN(C[C@@H](O)[C@@H]2Cc3ccccc3CN2)C(=O)c2cc(Cl)ncc21` (single isomer, unassigned) [Example 2], in that order: at least 10 µM, 3.83 µM and at least 100 µM.
For `CC[C@H]1CN(C[C@@H](O)[C@@H]2Cc3ccccc3CN2)C(=O)c2cc(Cl)ncc21` (single isomer, unassigned) [Example 3], in that order: at least 10 µM, 28.3 µM and at least 100 µM.
Compound `CC[C@H]1CN(C[C@@H](O)[C@@H]2Cc3ccccc3CN2)C(=O)c2cc(Cl)ncc21` (single isomer, unassigned) [Example 4] yielded an EC50 at PRMT5 of at least 10 µM. Also, the IC50 in test [1] (setting [2]) is 42.9 µM; in test [1] (setting [3]) it was at least 100 µM.
For `CC[C@H]1CN(C[C@@H](O)[C@@H]2Cc3ccccc3CN2)C(=O)c2cc(NC3CCN(C(C)=O)CC3)ncc21` (single isomer, unassigned) [Example 7], in that order: 0.682 µM, 0.00715 µM and 4.99 µM.
For `CC[C@H]1CN(C[C@@H](O)[C@@H]2Cc3ccccc3CN2)C(=O)c2cc(NC3CCN(C(C)=O)CC3)ncc21` (single isomer, unassigned) [Example 8], in that order: 3.24 µM, 0.0968 µM and 29.1 µM.
In turn, `CC[C@H]1CN(C[C@@H](O)[C@@H]2Cc3ccccc3CN2)C(=O)c2cc(NC3CCN(C(C)=O)CC3)ncc21` (single isomer, unassigned) [Example 9] returned a concentration for a half-maximal effect (EC50) at PRMT5 of 0.103 µM. Further, the IC50 in test [1] (setting [2]) was 0.00108 µM; in test [1] (setting [3]) it was 1.18 µM.
`CC[C@H]1CN(C[C@@H](O)[C@@H]2Cc3ccccc3CN2)C(=O)c2cc(NC3CCN(C(C)=O)CC3)ncc21` (single isomer, unassigned) [Example 10]: on PRMT5, the EC50 is at least 10 µM. Moreover, the IC50 in test [1] (setting [2]) was found to be 0.272 µM; in test [1] (setting [3]) it was 64.5 µM.
For `CC(=O)N1CCC(Nc2cc3c(cn2)C(C)(C)CN(C[C@@H](O)[C@@H]2Cc4ccccc4CN2)C3=O)CC1` (single isomer, unassigned) [Example 11], in that order: 3.89 µM, 0.0569 µM and 9.23 µM.
Consider `CC(=O)N1CCC(Nc2cc3c(cn2)C(C)(C)CN(C[C@@H](O)[C@@H]2Cc4ccccc4CN2)C3=O)CC1` (single isomer, unassigned) [Example 12], for which it took 0.102 µM to reach a half-maximal effect at PRMT5 (EC50). In addition, the IC50 came to 0.00153 µM in test [1] (setting [2]) and 0.631 µM in test [1] (setting [3]).

The record behind these values is patent publication US10947234B2, “PRMT5 inhibitors” (Merck Sharp & Dohme Corp., priority 2017, dated 2021).
